According to article PMC7013532, “Scenarios of Genes-to-Terpenoids Network Led to the Identification of a Novel α/β-Farnesene/β-Ocimene Synthase in Camellia sinensis” (International Journal of Molecular Sciences, 2020):

Target: TPS2 (Camellia sinensis, UniProt A0A3G3IRF8)
Test: SPME GC-MS product analysis
Format: biochemical
Details: pH 7.5, 50 mM Tris-HCl, 10 mM MgCl2, 5 mM DTT, 30 °C

Sequence of TPS2 (A0A3G3IRF8 entry or part of it): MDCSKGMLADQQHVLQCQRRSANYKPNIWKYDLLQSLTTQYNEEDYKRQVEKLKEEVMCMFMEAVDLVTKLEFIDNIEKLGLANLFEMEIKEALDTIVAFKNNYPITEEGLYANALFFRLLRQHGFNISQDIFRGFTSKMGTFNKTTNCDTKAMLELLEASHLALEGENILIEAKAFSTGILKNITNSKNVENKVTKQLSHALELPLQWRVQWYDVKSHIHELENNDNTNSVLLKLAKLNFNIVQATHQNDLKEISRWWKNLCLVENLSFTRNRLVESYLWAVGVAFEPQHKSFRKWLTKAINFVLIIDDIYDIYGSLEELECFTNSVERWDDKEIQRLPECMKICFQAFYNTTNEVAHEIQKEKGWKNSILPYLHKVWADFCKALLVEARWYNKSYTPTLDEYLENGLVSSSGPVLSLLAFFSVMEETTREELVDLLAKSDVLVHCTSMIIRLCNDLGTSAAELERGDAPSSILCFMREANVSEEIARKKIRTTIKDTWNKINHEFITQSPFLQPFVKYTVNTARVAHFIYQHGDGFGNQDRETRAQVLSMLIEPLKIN

| SMILES | SPME GC-MS product analysis (products beta-farnesene (main) and alpha-farnesene) | SPME GC-MS product analysis (product beta-ocimene) |
| --- | --- | --- |
| CC(C)=CCC/C(C)=C/CC/C(C)=C/COP(=O)(O)OP(=O)(O)O [FPP] | The main product produced by TPS2 using FPP as a substrate was β-farnesene | – |
| CC(C)=CCC/C(C)=C/COP(=O)(O)OP(=O)(O)O [GPP] | – | β-ocimene is the resulting product when using GPP is used as the substrate |
